In paper PMC3528769, “Comparative Study of the Fatty Acid Binding Process of a New FABP from Cherax quadricarinatus by Fluorescence Intensity, Lifetime and Anisotropy” (PLoS ONE, 2012):

How the values were obtained:
Cq-FABP [1] = biological target: T1, Cq-FABP (Cherax quadricarinatus, UniProt L0I6Z9); assay: ANS fluorescence intensity titration and equilibrium displacement of ANS by fatty acids; assay type: binding; conditions: calculated from equilibrium displacement experiments using the fluorescence intensity of ANS (Eq. 1); read-out: Kd,FA
T1 sequence (L0I6Z9 entry or part of it): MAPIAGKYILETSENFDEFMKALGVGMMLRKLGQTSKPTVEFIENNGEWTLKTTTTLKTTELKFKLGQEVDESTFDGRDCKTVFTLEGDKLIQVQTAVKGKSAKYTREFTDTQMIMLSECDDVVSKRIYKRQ
Method: (§1) Fluorescence emission spectra were measured at 25°C on a Cary-Eclipse spectrofluorimeter (Varian, CA, USA) equipped with a thermostated cell holder, using solutions (70 µl) placed in microcuvettes (pathlength, 0.3 cm). The binding of non-fluorescent fatty acids (PA, OA, LA, EPA and DHA) to Cq-FABP was measured indirectly by equilibrium displacement experiments using ANS as a fluorescent probe, either by measuring the fluorescence emission of ANS or by measuring the FRET between tryptophan and ANS, resulting in the quenching of donor fluorescence. The excitation wavelength was then set at 296 or 350 nm for tryptophan or ANS, respectively; the slit widths and PMT voltage were adjusted to optimize the fluorescence signal at 25°C. For titration experiments, the fluorescence emission spectrum of tryptophan or ANS was measured and the integrated fluorescence signal of tryptophan (315–360 nm) or ANS (440–600 nm) was calculated. For samples containing high concentrations of ANS, the inner-filter effect was not negligible and was corrected. UV-visible absorption spectra were carried out on a Uvikon XL spectrophotometer.
The equilibrium dissociation constant (Kd,FA) relative to the binding of fatty acids (FA) to Cq-FABP was determined by competition experiments using ANS displacement and linear regression of the following relationship: [drawing 1] (1) where Kd,ANS is the dissociation constant relative to the binding of ANS to the fatty acid binding site, Kd ^app ,ANS is the apparent dissociation constant of ANS obtained in the presence of a given fatty acid concentration.

Cq-FABP [2] = biological target: T1, Cq-FABP; assay: Steady-state FRET between the single Trp (W49) and ANS, Trp quenching and recovery by PA; assay type: binding; conditions: read-out: Kd,PA
Method: as §1

With CCCCCCCCCCCCCCCC(=O)O [PA, Palmitic acid] the Kd (Cq-FABP [1]) was 1100 ± 300 nM, the Kd (Cq-FABP [2]; FRET efficiency parameter, from slope of Kd app,PA versus [ANS] (Fig. 5B), average Kd,ANS 27.85 µM) was 830 nM and the Kd (Cq-FABP [2]; FRET efficiency parameter, y-intercept of Kd app,PA versus [ANS] (Fig. 5B)) was 1900 nM. The Kd (Cq-FABP [2]; Trp fluorescence intensity parameter, from slope of Kd app,PA versus [ANS] (Fig. 5A), average Kd,ANS 27.85 µM) was 1290 nM and the Kd (Cq-FABP [2]; Trp fluorescence intensity parameter, y-intercept of Kd app,PA versus [ANS] (Fig. 5A)) was 1470 nM.
